Reference: patent US6737383B1, “Herbicidal oxadiazolidines” (priority 1999, dated 2004)

How the values were obtained:
velvetleaf = test: Test B pre/postemergence velvetleaf; assay type: in vivo, Abutilon theophrasti
Procedure, shortened: (§1)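 Test chemicals in a non-phytotoxic solvent mixture with surfactant were sprayed preemergence onto planted seeds and postemergence onto plants 2 to 18 cm tall (1- to 4-leaf stage). After twelve to sixteen days in a greenhouse, injury was visually rated against untreated controls from 0 (no effect) to 10 (complete control).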

crabgrass = test: Test B pre/postemergence crabgrass; assay type: in vivo, Digitaria sanguinalis
Procedure, shortened: as §1

rape = test: Test B pre/postemergence rape; assay type: in vivo, Brassica napus
Procedure, shortened: as §1

blackgrass = test: Test B pre/postemergence blackgrass; assay type: in vivo, Alopecurus myosuroides
Procedure, shortened: as §1

corn = test: Test B pre/postemergence corn; assay type: in vivo, Zea mays
Procedure, shortened: as §1

morningglory = test: Test B pre/postemergence morningglory; assay type: in vivo, Ipomoea hederacea
Procedure, shortened: as §1

smallflower flatsedge = test: Test B flood test smallflower flatsedge; assay type: in vivo, Cyperus difformis
Procedure, shortened: (§2)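 Each value is a visual injury score relative to controls, with 10 meaning complete control and 0 no effect. Evaluation took place twelve to sixteen days after the 2-leaf-stage plants were treated and kept in the greenhouse.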

rice = test: Test B flood test rice; assay type: in vivo, Oryza sativa
Procedure, shortened: as §2

sugar beet = test: Test B pre/postemergence sugar beet; assay type: in vivo, Beta vulgaris
Procedure, shortened: as §1

duck salad = test: Test B flood test duck salad; assay type: in vivo, Heteranthera limosa
Procedure, shortened: as §2

purple nutsedge = test: Test B pre/postemergence purple nutsedge; assay type: in vivo, Cyperus rotundus
Procedure, shortened: as §1

cocklebur = test: Test B pre/postemergence cocklebur; assay type: in vivo, Xanthium strumarium
Procedure, shortened: as §1

soybean = test: Test B pre/postemergence soybean; assay type: in vivo, Glycine max
Procedure, shortened: as §1

giant foxtail = test: Test B pre/postemergence giant foxtail; assay type: in vivo, Setaria faberii
Procedure, shortened: as §1

pigweed = test: Test B pre/postemergence pigweed; assay type: in vivo, Amaranthus retroflexus
Procedure, shortened: as §1

wheat = test: Test B pre/postemergence wheat; assay type: in vivo, Triticum aestivum
Procedure, shortened: as §1

[1] = Postemergence, Rate 62 g/ha, scale 0 to 10, 0 is no effect, 10 is complete control
[2] = Postemergence, Rate 250 g/ha, scale 0 to 10, 0 no effect, 10 complete control
[3] = Preemergence, Rate 31 g/ha, visual rating, scale 0 to 10 (0 no effect, 10 complete control)
[4] = Preemergence, Rate 62 g/ha, scale 0 to 10, 0 is no effect, 10 is complete control
[5] = Preemergence, Rate 125 g/ha, scale 0 to 10 (0 no effect, 10 complete control)
[6] = Preemergence, Rate 250 g/ha, scale of 0 to 10 where 0 is no effect and 10 is complete control
[7] = Rate 125 g/ha, Postemergence, scale 0 to 10, 0 no effect, 10 complete control
[8] = Rate 31 g/ha, Postemergence, scale 0 to 10
[9] = Rate 125 g/ha, Postemergence section (flood test species), scale 0 to 10, 0 no effect, 10 complete control
[10] = Rate 250 g/ha, headed Pre-emergence (flood test species), scale 0 to 10 (0 no effect, 10 complete control)
[11] = Rate 500 g/ha, headed Pre-emergence (flood test species), scale 0 to 10 (0 no effect, 10 complete control)
[12] = Rate 2000 g/ha, Pre-emergence (as headed), scale 0 to 10
[13] = flood test, listed under Postemergence, Rate 250 g/ha, scale 0 to 10, 0 no effect, 10 complete control
[14] = Rate 500 g/ha, Postemergence section of Table B, 0 to 10 scale (0 no effect, 10 complete control)
[15] = Rate 1000 g/ha, Pre-emergence (as headed), scale 0 to 10

COc1ccccc1-n1c(=O)on(C(=O)N(c2ccc(F)cc2)C(C)C)c1=O [Compound 30]
8: Crabgrass plant response rating (crabgrass; [7])
6: Morningglory plant response rating (morningglory; [2])
7: Plant response rating, Blackgrass (blackgrass; [6]) | Plant response rating, Redroot pigweed (pigweed; [6])
0: Velvetleaf plant response rating (velvetleaf; [1]) | Velvetleaf plant response rating (velvetleaf; [2]) | Velvetleaf plant response rating (velvetleaf; [3]) | Plant response rating, Velvetleaf (velvetleaf; [4]) | Plant response rating, Velvetleaf (velvetleaf; [5]) | Velvetleaf plant response rating (velvetleaf; [7]) | Crabgrass plant response rating (crabgrass; [8]) | Rape plant response rating (rape; [1]) | Rape plant response rating (rape; [2]) | Rape plant response rating (rape; [3]) | Plant response rating, Rape (rape; [4]) | Plant response rating, Rape (rape; [5]) | Plant response rating, Rape (rape; [6]) | Rape plant response rating (rape; [8]) | Rape plant response rating (rape; [7]) | Blackgrass plant response rating (blackgrass; [1]) | Blackgrass plant response rating (blackgrass; [3]) | Blackgrass plant response rating (blackgrass; [8]) | Blackgrass plant response rating (blackgrass; [7]) | Corn plant response rating (corn; [1]) | Corn plant response rating (corn; [2]) | Corn plant response rating (corn; [3]) | Plant response rating, Corn (corn; [4]) | Plant response rating, Corn (corn; [5]) | Plant response rating, Corn (corn; [6]) | Corn plant response rating (corn; [8]) | Corn plant response rating (corn; [7]) | Morningglory plant response rating (morningglory; [3]) | Plant response rating, Morningglory (morningglory; [4]) | Plant response rating, Morningglory (morningglory; [5]) | Plant response rating, Morningglory (morningglory; [6]) | S. Flatsedge plant response rating (smallflower flatsedge; [1]) | S. Flatsedge plant response rating (smallflower flatsedge; Pre-emergence, Rate 1000 g/ha, scale 0 to 10 (0 no effect, 10 complete control)) | S. Flatsedge plant response rating (smallflower flatsedge; [9]) | S. Flatsedge plant response rating (smallflower flatsedge; [10]) | Plant response rating, S. Flatsedge (smallflower flatsedge; [11]) | S. Flatsedge plant response rating (smallflower flatsedge; [12]) | S. Flatsedge plant response rating (smallflower flatsedge; [13]) | Rice plant response rating (rice; [1]) | Rice plant response rating (rice; [9]) | Rice plant response rating (rice; [10]) | Rice plant response rating (rice; [14]) | Plant response rating, Rice (rice; [11]) | Rice plant response rating (rice; [15]) | Rice plant response rating (rice; [12]) | Rice plant response rating (rice; [13]) | Sugarbeets plant response rating (sugar beet; [1]) | Sugarbeets plant response rating (sugar beet; [2]) | Sugarbeets plant response rating (sugar beet; [3]) | Plant response rating, Sugarbeets (sugar beet; [4]) | Plant response rating, Sugarbeets (sugar beet; [5]) | Plant response rating, Sugarbeets (sugar beet; [6]) | Sugarbeets plant response rating (sugar beet; [7]) | Ducksalad plant response rating (duck salad; [1]) | Ducksalad plant response rating (duck salad; [9]) | Ducksalad plant response rating (duck salad; [10]) | Ducksalad plant response rating (duck salad; [14]) | Plant response rating, Ducksalad (duck salad; [11]) | Ducksalad plant response rating (duck salad; [15]) | Ducksalad plant response rating (duck salad; [12]) | Ducksalad plant response rating (duck salad; [13]) | Nutsedge plant response rating (purple nutsedge; [1]) | Nutsedge plant response rating (purple nutsedge; [2]) | Nutsedge plant response rating (purple nutsedge; [3]) | Plant response rating, Nutsedge (purple nutsedge; [4]) | Plant response rating, Nutsedge (purple nutsedge; [5]) | Plant response rating, Nutsedge (purple nutsedge; [6]) | Nutsedge plant response rating (purple nutsedge; [8]) | Nutsedge plant response rating (purple nutsedge; [7]) | Cocklebur plant response rating (cocklebur; [1]) | Cocklebur plant response rating (cocklebur; [2]) | Cocklebur plant response rating (cocklebur; [3]) | Plant response rating, Cocklebur (cocklebur; [4]) | Plant response rating, Cocklebur (cocklebur; [5]) | Cocklebur plant response rating (cocklebur; [8]) | Cocklebur plant response rating (cocklebur; [7]) | Soybean plant response rating (soybean; [3]) | Plant response rating, Soybean (soybean; [4]) | Plant response rating, Soybean (soybean; [5]) | Plant response rating, Soybean (soybean; [6]) | Giant foxtail plant response rating (giant foxtail; [1]) | Giant foxtail plant response rating (giant foxtail; [8]) | Redroot pigweed plant response rating (pigweed; [1]) | Redroot pigweed plant response rating (pigweed; [2]) | Redroot pigweed plant response rating (pigweed; [3]) | Plant response rating, Redroot pigweed (pigweed; [4]) | Plant response rating, Redroot pigweed (pigweed; [5]) | Redroot pigweed plant response rating (pigweed; [8]) | Redroot pigweed plant response rating (pigweed; [7]) | Wheat plant response rating (wheat; [1]) | Wheat plant response rating (wheat; [2]) | Wheat plant response rating (wheat; [3]) | Plant response rating, Wheat (wheat; [4]) | Plant response rating, Wheat (wheat; [5]) | Wheat plant response rating (wheat; [7])
2: Crabgrass plant response rating (crabgrass; [3]) | Blackgrass plant response rating (blackgrass; [2]) | Soybean plant response rating (soybean; [2]) | Giant foxtail plant response rating (giant foxtail; [3]) | Plant response rating, Giant foxtail (giant foxtail; [4]) | Giant foxtail plant response rating (giant foxtail; [7]) | Plant response rating, Wheat (wheat; [6])
10: Plant response rating, Crabgrass (crabgrass; [6]) | Plant response rating, Giant foxtail (giant foxtail; [6])
3: Plant response rating, Velvetleaf (velvetleaf; [6]) | Plant response rating, Crabgrass (crabgrass; [4]) | Plant response rating, Blackgrass (blackgrass; [4]) | Plant response rating, Blackgrass (blackgrass; [5]) | Giant foxtail plant response rating (giant foxtail; [2]) | Plant response rating, Giant foxtail (giant foxtail; [5])
1: Crabgrass plant response rating (crabgrass; [1]) | Morningglory plant response rating (morningglory; [1]) | Morningglory plant response rating (morningglory; [8]) | Morningglory plant response rating (morningglory; [7]) | Soybean plant response rating (soybean; [1]) | Soybean plant response rating (soybean; [7])
9: Crabgrass plant response rating (crabgrass; [2]) | Plant response rating, Crabgrass (crabgrass; [5])
